Assay results from ChEMBL document CHEMBL5104091, “Pyridazine as a privileged structure: An updated review on anticancer activity of pyridazine containing bioactive molecules” (Eur J Med Chem, 2021).
Converted amounts (≈) assume the structure as drawn. Blank lines part the entries; values can stand above or below the compound they belong to.

Key:
HCT-116 [1] = test: Cytotoxicity against human HCT-116 cells assessed as cell growth inhibition by colorimetric method; format: functional, cell-based
HepG2 [2] = test: Antiproliferative activity against human HepG2 cells assessed as cell growth inhibition incubated for 48 hrs by MTT assay; format: functional, cell-based; details: HepG2, 48 h
MCF7 [3] = test: Antiproliferative activity against human MCF7 cells assessed as cell growth inhibition incubated for 48 hrs by MTT assay; format: functional, cell-based; details: MCF7, 48 h
MDA-MB-231 = test: Antiproliferative activity against human MDA-MB-231 cells assessed as cell growth inhibition measured after 48 hrs by WST-1 assay; format: functional, cell-based; details: MDA-MB-231, 48 h
[4] = molecular target: T1, Poly [ADP-ribose] polymerase 1 (Homo sapiens, UniProt P09874); test: Displacement of [125I]KX1 from PARP1 in human OVCAR-8 cells incubated for 1 hr by wizard gamma counter analysis; format: cell-based
[5] = molecular target: T1, Poly [ADP-ribose] polymerase 1; test: Inhibition of PARP1 (unknown origin) by colorimetric assay
[6] = Inhibition of tyrosine kinase (unknown origin); design: species or system Homo sapiens
MCF-12A = test: Antiproliferative activity against human MCF-12A cells assessed as cell growth inhibition; format: functional, cell-based
MCF7 [7] = test: Antiproliferative activity against human MCF7 cells assessed as cell growth inhibition; format: functional, cell-based
HCT-116 [8] = test: Cytotoxicity against human HCT-116 cells assessed as cell growth inhibition measured after 72 hrs by MTT assay; format: functional, cell-based; details: HCT-116, 72 h
Hs746T = test: Antiproliferative activity against human Hs746T cells assessed as cell growth inhibition measured after 72 hrs by WST-1 assay; format: functional, cell-based
[9] = molecular target: Hepatocyte growth factor receptor (Homo sapiens, UniProt P08581); test: Inhibition of human recombinant c-MET in presence of ATP by HTRF assay
MCF7 [10] = test: Cytotoxicity against human MCF7 cells assessed as cell growth inhibition by colorimetric method; format: functional, cell-based
ECa-109 cell line = test: Antiproliferative activity against human EC109 cells assessed as inhibition of cell growth; format: functional, cell-based; details: read-out: IC50
MCF7 [11] = test: Cytotoxicity against human MCF7 cells assessed as cell growth inhibition measured after 72 hrs by MTT assay; format: functional, cell-based; details: MCF7, 72 h
[12] = molecular target: T2, Vascular endothelial growth factor receptor 2 (Homo sapiens, UniProt P35968); test: Inhibition of VEGFR2 (unknown origin) using poly (Glu,Tyr) 4:1 as substrate measured after 5 mins in presence of ATP by ELISA method
P815 = test: Cytotoxicity against mouse P815 cells assessed as cell growth inhibition measured after 48 hrs by MTT assay; format: functional, cell-based; details: P815, 48 h
MCF7 [13] = test: Cytotoxicity against human MCF7 cells assessed as cell growth inhibition measured after 48 hrs by MTT assay; format: functional, cell-based; details: MCF7, 48 h
MCF7 [14] = test: Antiproliferative activity against human MCF7 assessed as cell growth inhibition measured after 72 hrs by CCK-8 assay; format: functional, cell-based; details: MCF7, 72 h
Hep 3B2 [15] = test: Induction of apoptosis in human Hep3B cells assessed as early apoptotic cells incubated for 24 hrs by annexin-V/FITC and propidium iodide staining based flow cytometry analysis; format: functional
MCF7 [16] = test: Induction of apoptosis in human MCF7 cells assessed as early apoptotic cells incubated for 24 hrs by annexin-V/FITC and propidium iodide staining based flow cytometry analysis; format: functional
Hep 3B2 [17] = test: Antiproliferative activity against human Hep3B assessed as cell growth inhibition measured after 72 hrs by CCK-8 assay; format: functional, cell-based
A549 [18] = test: Potency index, ratio of Sorafenib IC50 to compound IC50 for antiproliferative activity against human A549 cells assessed as cell growth inhibition measured after 48 hrs by MTT assay; format: functional
[19] = molecular target: T2, Vascular endothelial growth factor receptor 2; test: Inhibition of VEGFR2 (unknown origin) using ULight-4E-BP1 peptide as substrate incubated for 1 hr in presence of ATP by fluorescence based analysis
A549 [20] = test: Antiproliferative activity against human A549 cells assessed as cell growth inhibition measured after 48 hrs by MTT assay; format: functional, cell-based; details: A549, 48 h
MDA-MB-468 = test: Cytotoxicity against human MDA-MB-468 cells assessed as cell growth reduction measured after 48 hrs by MTT assay; format: functional, cell-based; details: MDA-MB-468, 48 h
PC-3 = test: Cytotoxicity against human PC-3 cells assessed as cell growth inhibition by MTT assay; format: functional, cell-based
HepG2 [21] = test: Cytotoxicity against human HepG2 cells assessed as cell growth inhibition by colorimetric method; format: functional, cell-based
SiHa = test: Cytotoxicity against human SiHa cells assessed as cell growth inhibition measured after 45 hrs by MTT assay; format: functional, cell-based
A498 = test: Cytotoxicity against human A498 cells assessed as cell growth inhibition measured after 45 hrs by MTT assay; format: functional, cell-based; details: A498, 45 h
A549 [22] = test: Cytotoxicity against human A549 cells assessed as cell growth inhibition measured after 45 hrs by MTT assay; format: functional, cell-based; details: A549, 45 h
HepG2 [23] = test: Cytotoxicity against human HepG2 cells assessed as cell growth inhibition measured after 45 hrs by MTT assay; format: functional, cell-based; details: HepG2, 45 h
Ca-Ski = test: Cytotoxicity against human Ca-Ski cells assessed as cell growth inhibition measured after 45 hrs by MTT assay; format: functional, cell-based
HepG2 [24] = test: Antiproliferative activity against human HepG2 cells assessed as cell growth inhibition incubated for 24 hrs by MTT assay; format: functional, cell-based; details: HepG2, 24 h
MCF7 [25] = test: Antiproliferative activity against human MCF7 cells assessed as cell growth inhibition incubated for 24 hrs by MTT assay; format: functional, cell-based; details: MCF7, 24 h

T2 sequence (P35968 whole entry): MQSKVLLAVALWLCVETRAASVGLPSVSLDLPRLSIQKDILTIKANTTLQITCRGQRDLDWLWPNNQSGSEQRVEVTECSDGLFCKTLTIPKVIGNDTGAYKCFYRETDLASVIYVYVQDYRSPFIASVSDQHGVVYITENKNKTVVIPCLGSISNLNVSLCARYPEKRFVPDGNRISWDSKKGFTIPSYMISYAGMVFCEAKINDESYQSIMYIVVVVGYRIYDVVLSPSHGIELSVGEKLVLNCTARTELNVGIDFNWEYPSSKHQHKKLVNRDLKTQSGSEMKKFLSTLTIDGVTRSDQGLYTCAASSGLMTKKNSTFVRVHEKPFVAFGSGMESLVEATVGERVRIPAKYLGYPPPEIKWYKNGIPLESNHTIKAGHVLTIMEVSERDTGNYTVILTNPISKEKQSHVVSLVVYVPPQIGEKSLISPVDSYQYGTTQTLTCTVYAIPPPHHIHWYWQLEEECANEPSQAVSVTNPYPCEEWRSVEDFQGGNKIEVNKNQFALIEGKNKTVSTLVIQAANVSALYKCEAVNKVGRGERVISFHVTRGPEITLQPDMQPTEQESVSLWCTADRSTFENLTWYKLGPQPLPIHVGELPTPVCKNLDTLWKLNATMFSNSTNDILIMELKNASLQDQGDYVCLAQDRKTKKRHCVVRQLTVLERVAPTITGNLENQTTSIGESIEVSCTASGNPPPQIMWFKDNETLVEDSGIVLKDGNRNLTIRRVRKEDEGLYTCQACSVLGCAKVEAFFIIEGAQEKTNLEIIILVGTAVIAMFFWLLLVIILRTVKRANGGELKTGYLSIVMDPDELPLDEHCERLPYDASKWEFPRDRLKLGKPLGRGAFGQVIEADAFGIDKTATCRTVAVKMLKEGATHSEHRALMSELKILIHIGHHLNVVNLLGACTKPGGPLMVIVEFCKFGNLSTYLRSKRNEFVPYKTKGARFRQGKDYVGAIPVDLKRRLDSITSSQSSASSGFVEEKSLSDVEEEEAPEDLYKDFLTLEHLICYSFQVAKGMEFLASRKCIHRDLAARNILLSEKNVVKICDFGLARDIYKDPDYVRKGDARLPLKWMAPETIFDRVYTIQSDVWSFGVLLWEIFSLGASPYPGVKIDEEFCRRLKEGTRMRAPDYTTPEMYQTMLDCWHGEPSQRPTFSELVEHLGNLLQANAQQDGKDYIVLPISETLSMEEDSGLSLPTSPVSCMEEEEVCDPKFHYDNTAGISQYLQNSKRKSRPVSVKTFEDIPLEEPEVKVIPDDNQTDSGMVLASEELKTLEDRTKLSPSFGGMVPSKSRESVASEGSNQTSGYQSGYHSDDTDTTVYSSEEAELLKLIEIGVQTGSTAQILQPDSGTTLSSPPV
T1 sequence (P09874 whole entry): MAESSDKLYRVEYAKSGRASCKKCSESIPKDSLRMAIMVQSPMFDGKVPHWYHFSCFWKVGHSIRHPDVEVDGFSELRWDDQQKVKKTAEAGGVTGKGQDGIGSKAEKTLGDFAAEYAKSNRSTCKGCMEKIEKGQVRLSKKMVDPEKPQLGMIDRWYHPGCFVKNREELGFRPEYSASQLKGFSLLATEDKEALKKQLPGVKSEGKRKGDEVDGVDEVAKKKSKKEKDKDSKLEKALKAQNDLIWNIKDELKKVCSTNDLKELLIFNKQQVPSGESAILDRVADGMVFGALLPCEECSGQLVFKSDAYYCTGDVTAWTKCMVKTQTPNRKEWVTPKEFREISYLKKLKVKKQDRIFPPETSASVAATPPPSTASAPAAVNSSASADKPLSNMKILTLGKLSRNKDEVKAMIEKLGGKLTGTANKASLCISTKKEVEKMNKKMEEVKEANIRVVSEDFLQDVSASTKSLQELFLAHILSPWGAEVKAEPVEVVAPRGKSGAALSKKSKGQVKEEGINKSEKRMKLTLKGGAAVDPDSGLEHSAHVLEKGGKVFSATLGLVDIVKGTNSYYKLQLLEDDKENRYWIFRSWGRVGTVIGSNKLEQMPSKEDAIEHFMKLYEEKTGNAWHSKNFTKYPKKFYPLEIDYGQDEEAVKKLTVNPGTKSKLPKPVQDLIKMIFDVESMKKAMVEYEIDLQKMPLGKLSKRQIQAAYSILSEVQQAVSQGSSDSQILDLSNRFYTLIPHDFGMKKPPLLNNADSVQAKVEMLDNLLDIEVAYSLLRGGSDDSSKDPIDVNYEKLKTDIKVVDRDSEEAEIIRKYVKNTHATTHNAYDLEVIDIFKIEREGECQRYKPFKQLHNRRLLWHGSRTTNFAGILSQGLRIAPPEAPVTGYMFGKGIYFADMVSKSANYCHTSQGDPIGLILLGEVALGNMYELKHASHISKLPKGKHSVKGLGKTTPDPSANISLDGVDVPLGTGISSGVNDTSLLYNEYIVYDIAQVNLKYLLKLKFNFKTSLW
Chain of Hepatocyte growth factor receptor (P08581 whole entry): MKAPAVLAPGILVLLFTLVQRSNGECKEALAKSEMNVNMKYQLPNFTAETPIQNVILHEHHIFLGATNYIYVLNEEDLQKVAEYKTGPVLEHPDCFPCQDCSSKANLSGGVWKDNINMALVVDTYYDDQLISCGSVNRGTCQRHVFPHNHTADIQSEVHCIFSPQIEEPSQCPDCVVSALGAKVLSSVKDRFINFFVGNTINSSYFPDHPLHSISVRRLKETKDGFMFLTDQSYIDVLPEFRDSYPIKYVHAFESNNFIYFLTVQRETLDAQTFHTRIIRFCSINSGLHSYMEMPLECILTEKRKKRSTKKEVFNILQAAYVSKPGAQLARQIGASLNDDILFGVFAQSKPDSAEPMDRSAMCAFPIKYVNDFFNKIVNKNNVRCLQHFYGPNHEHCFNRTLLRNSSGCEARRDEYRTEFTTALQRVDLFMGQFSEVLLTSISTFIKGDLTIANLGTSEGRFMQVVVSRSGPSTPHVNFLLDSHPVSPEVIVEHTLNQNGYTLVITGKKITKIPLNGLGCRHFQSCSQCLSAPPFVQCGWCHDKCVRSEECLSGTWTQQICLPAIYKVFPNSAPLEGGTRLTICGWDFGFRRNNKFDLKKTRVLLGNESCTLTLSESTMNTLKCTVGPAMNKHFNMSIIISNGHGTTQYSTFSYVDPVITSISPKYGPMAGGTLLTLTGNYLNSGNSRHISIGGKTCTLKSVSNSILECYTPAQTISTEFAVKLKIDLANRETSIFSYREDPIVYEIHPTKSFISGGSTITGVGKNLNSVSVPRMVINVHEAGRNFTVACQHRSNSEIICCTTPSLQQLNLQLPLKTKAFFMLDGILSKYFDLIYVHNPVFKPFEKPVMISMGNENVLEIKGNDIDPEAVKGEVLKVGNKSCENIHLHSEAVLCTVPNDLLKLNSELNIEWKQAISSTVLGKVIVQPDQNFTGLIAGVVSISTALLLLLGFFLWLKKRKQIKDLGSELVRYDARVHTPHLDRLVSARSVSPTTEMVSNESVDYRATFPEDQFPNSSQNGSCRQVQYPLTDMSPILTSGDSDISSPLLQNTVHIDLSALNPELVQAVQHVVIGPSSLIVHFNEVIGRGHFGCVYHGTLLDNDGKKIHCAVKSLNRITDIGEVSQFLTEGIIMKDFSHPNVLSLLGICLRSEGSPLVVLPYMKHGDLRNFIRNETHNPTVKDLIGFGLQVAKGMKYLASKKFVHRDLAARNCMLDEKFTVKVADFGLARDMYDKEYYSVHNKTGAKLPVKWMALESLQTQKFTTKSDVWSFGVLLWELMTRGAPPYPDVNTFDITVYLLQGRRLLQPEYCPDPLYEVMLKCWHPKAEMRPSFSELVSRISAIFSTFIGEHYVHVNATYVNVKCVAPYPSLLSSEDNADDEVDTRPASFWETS

Structure (SMILES): Cc1ccc(-c2cc(-c3c(-c4ccccc4)[nH]c4ccccc34)c(Nc3ccc(/N=N/c4c(C)nc(N)nc4C)cc3)nn2)cc1C
IC50 (HCT-116 [1]): 2.1 µg/mL (≈ 3.41 µM)

Structure (SMILES): COc1ccc(-c2cc(Cc3ccc(Cl)cc3)c(=O)[nH]n2)cc1
IC50 (HepG2 [2]): 14.8 µM
IC50 (MCF7 [3]): > 37 µM

Structure (SMILES): COc1cccc(NC(=O)Cc2ccc(-c3nn4c(C)nnc4c4ccccc34)cc2)c1
IC50 (HCT-116 [8]): 57.4 µg/mL

Structure (SMILES): CC(=O)C(=NNc1ccc(Nc2nnc(-c3ccc(C)c(C)c3)cc2-c2c(-c3ccccc3)[nH]c3ccccc23)cc1)C(C)=O
IC50 (MCF7 [10]): 2.2 µg/mL (≈ 3.71 µM)

Structure (SMILES): COc1ccc(NC(=O)CSc2nnc(-c3ccccc3)c3ccccc23)cc1
IC50 (ECa-109 cell line): 8.13 µM

Structure (SMILES): CCCOc1ccc2oc(Cc3cc(=O)[nH]nc3C)cc2c1
IC50 (P815): 35 µM
IC50 (MCF7 [13]): 14.5 µM

Structure (SMILES): C=CC[Se]c1ccc(S(=O)(=O)CCC)nn1
IC50 (MCF7 [14]): 33.8 µM
Activity (Hep 3B2 [15]): 5.46%
Activity (MCF7 [16]): 9.28%
IC50 (Hep 3B2 [17]): 30.7 µM

Structure (SMILES): Cc1n[nH]c(=S)cc1Cc1cc2cc(Cl)ccc2o1
IC50 (MDA-MB-468): 11.5 µM

Structure (SMILES): Cc1n[nH]c(=O)cc1Cc1cc2cc(Cl)cc(Br)c2o1
IC50 (MDA-MB-468): 3.1 µM

Structure (SMILES): COC1CCN(C(=O)c2cc(Cc3n[nH]c(=O)c4ccccc34)ccc2F)CC1 [AZD2461]
IC50 [4]: 0.0028 µM

Structure (SMILES): Sc1nnc(Cc2ccccc2)c2ccccc12
IC50 (PC-3): 8.6 µg/mL (≈ 34.1 µM)

Structure (SMILES): CCOC(=O)/C(C#N)=N/Nc1ccc(Nc2nnc(-c3ccc(C)c(C)c3)cc2-c2c(-c3ccccc3)[nH]c3ccccc23)cc1
IC50 (HepG2 [21]): 3.1 µg/mL (≈ 5.12 µM)

Structure (SMILES): CC(C)c1ccc(OCC(=O)NNc2ccc(Cl)nn2)c(C(C)C)c1
IC50 (SiHa): 7.8 µM
IC50 (A498): 6.8 µM
IC50 (A549 [22]): 6.6 µM
IC50 (HepG2 [23]): 6.9 µM
IC50 (Ca-Ski): 7.5 µM

Structure (SMILES): COc1ccc2oc(Cc3cc(=O)[nH]nc3C)cc2c1
IC50 (P815): 35 µM
IC50 (MCF7 [13]): 14.5 µM

The next lines start with results.

IC50 (MDA-MB-231): 12 µM
Structure (SMILES): O=C1Nc2ccc(Br)cc2/C1=N/Nc1nnc(-c2ccccc2)c2ccccc12

IC50 [4]: 0.0042 µM
Structure (SMILES): COC1CCN(C(=O)c2cc(Cc3n[nH]c(=O)c4ccccc34)ccc2F)C1 (stereo not drawn)

IC50 (MDA-MB-231): 12 µM
Structure (SMILES): O=C1Nc2ccc(Cl)cc2/C1=N/Nc1nnc(-c2ccccc2)c2ccccc12

IC50 [5]: 0.0367 µM
Structure (SMILES): O=C(c1ccc(Cc2n[nH]c(=O)c3cccnc23)cc1)N1CCCC1

IC50 [6]: 0.34 µM
IC50 (MCF7 [7]): 0.11 µM
Structure (SMILES): Cc1ccc2nnc(C(=O)NNC(N)=S)c(N)c2c1
IC50 (MCF-12A): 64.2 µM

IC50 [9]: 0.035 µM
Structure (SMILES): O=c1ccc(-c2cccnc2)nn1CC1CN(c2ncc(-c3cnn(C4CCNCC4)c3)cn2)CCO1 (stereo not drawn)
IC50 (Hs746T): 1.9 µM

IC50 [12]: 0.11 µM
Structure (SMILES): O=C(NNc1nn2cnnc2c2ccccc12)NC1CCCCC1
IC50 (MCF7 [11]): 8.8 µM
IC50 (HCT-116 [8]): 6.04 µM

IC50 (HepG2 [2]): 26.4 µM
IC50 (MCF7 [3]): > 37 µM
Structure (SMILES): COc1ccc(-c2cc(Cc3ccccc3O)c(=O)[nH]n2)cc1

IC50 [19]: 0.00012 µM
IC50 (A549 [20]): 0.37 µM
Structure (SMILES): CNC(=O)c1cc(Oc2ccc(NC(=O)c3nn(-c4ccc(Cl)cc4)cc(C)c3=O)cc2)ccn1
Ratio IC50 (A549 [18]): 3.4

IC50 (MDA-MB-231): 12 µM
Structure (SMILES): O=C1Nc2ccccc2/C1=N/Nc1nnc(-c2ccccc2)c2ccccc12

IC50 (MDA-MB-231): 12 µM
Structure (SMILES): O=C1Nc2ccc(Br)cc2/C1=N/Nc1nnc(-c2ccc(Cl)cc2)c2ccccc12

IC50 [12]: 0.91 µM
Structure (SMILES): S=C(NNc1nn2cnnc2c2ccccc12)Nc1ccccc1

IC50 [4]: 0.0047 µM
Structure (SMILES): COC1CCCN(C(=O)c2cc(Cc3n[nH]c(=O)c4ccccc34)ccc2F)CC1 (stereo not drawn)

IC50 (A549 [20]): 1.25 µM
Structure (SMILES): CNC(=O)c1cc(Oc2ccc(NC(=O)Nc3ccc(Cl)c(C(F)(F)F)c3)cc2)ccn1 [SORAFENIB]

IC50 (HepG2 [24]): 8.67 µM
IC50 (MCF7 [25]): 9.41 µM
Structure (SMILES): Cc1cc(-c2ccc(OCC(=O)NNc3nnc(COc4ccc(-c5ccc(Cl)c(C)c5)nn4)o3)nn2)ccc1Cl
